These results are taken from patent publication US11639353B2, “Cyclobutanes- and azetidine-containing mono and spirocyclic compounds as αV integrin inhibitors” (BRISTOL-MYERS SQUIBB COMPANY, priority 2016, dated 2023).

Holding throughout (details): alternatively SPA-based assay
The target in one assay is human αVβ5 (Homo sapiens, UniProt P06756+P18084). Briefly: human αVβ5 HTRF binding assay. The method, then: (§1) All binding assays used the HTRF (homogeneous time resolved fluorescence) technology from Cisbio International, therefore all assays are described as HTRF binding assays. The assay results for the Examples are listed above together with the characterization data. The HTRF binding assays are established for the following integrins: human αVβ6, human αVβ1, human αVβ3, human αVβ5, and human αVβ8. All assays used the following assay buffer: 20 mM Tris, pH 7.4, 1 mM MgCl2, 1 mM MnCl2, 0.01% Tween 20, and 0.01% BSA. Alternatively, a SPA-based assay was used for evaluation of receptor binding.
(§2) The SPA-based assay was carried out according to the protocol and procedures similar to the ones described in the following reference with appropriate modifications to agents and ligands which are readily understood by one skilled in the art: Pachter J A, Zhang R, Mayer-Ezell R., “Scintillation proximity assay to measure binding of soluble fibronectin to antibody-captured αVβ1 integrin” Anal Biochem. 1995 Sep. 1; 230(1):101-7.

The next assay deals with human αVβ8 (Homo sapiens, UniProt P06756+P26012). Briefly: human αVβ8 HTRF binding assay. The method, then:
as §1, §2

For another assay, the target named is T1, human αVβ6 (Homo sapiens, UniProt P06756+P18564).
T1 construct: purchased R & D systems 3817-AV
The assay can be described thus: human αVβ6 HTRF binding assay. An outline of the steps:
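Biotinylated recombinant human αVβ6 (1.25 nM final) incubated with FITC-fibronectin (5 nM final) 1 h at RT, then streptavidin-terbium (0.625 nM final) added and left overnight at RT in the dark before HTRF reading. Buffer: 20 mM Tris pH 7.4, 1 mM MgCl2, 1 mM MnCl2, 0.01% Tween 20, 0.01% BSA.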

The target in another assay is human αVβ3 (Homo sapiens, UniProt P05106+P06756). The assay can be described thus: human αVβ3 HTRF binding assay. The method, then: as §1, §2
The target of another assay is human αVβ1 (Homo sapiens, UniProt P05556+P06756). The assay can be described thus: human αVβ1 HTRF binding assay. The method, then: as §1, §2
human αVβ1, sequence (P06756 31-992 limits assumed): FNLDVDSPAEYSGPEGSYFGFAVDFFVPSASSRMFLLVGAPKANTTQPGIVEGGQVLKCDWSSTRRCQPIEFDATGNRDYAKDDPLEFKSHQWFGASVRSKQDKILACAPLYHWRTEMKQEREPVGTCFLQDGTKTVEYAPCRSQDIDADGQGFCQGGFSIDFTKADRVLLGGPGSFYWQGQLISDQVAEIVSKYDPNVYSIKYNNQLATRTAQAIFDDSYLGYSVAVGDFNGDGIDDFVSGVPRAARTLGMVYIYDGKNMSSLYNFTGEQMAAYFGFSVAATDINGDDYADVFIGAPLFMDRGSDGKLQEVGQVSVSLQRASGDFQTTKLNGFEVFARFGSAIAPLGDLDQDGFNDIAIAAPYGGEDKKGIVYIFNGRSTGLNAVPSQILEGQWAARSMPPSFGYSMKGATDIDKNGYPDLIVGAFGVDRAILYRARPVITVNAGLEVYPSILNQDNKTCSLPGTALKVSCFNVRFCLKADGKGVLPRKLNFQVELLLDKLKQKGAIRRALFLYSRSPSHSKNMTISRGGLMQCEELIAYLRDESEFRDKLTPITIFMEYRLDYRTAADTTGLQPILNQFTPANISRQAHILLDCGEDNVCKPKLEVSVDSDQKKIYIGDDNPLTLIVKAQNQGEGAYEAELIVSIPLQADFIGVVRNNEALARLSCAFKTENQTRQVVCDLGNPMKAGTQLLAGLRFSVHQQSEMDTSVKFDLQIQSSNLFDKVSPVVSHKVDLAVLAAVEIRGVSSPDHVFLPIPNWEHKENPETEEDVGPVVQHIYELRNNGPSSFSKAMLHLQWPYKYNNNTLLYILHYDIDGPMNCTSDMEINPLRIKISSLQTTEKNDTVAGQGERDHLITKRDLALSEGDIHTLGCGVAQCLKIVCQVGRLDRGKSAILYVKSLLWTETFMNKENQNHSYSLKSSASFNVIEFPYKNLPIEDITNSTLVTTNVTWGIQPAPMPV
human αVβ1, sequence (P05556 21-728 limits assumed): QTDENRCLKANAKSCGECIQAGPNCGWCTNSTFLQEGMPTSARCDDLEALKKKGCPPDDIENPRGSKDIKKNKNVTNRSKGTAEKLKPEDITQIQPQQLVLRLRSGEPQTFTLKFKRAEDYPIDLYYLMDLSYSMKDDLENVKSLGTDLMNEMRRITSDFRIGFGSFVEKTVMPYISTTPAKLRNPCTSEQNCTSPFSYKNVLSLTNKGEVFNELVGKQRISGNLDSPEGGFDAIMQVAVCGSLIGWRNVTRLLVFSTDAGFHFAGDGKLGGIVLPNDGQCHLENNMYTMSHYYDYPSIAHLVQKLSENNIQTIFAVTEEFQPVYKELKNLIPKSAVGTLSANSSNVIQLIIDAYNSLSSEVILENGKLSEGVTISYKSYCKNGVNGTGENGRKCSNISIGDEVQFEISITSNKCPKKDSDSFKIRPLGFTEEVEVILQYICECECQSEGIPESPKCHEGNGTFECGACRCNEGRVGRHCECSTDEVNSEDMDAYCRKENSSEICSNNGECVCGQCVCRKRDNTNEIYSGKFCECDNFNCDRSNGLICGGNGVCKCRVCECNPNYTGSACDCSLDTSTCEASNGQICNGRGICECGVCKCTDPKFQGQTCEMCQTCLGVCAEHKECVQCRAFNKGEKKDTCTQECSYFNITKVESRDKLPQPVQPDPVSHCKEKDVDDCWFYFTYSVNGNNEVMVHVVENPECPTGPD

human αVβ5, sequence (P06756 31-992 limits assumed): as the sequence (P06756 31-992 limits assumed) above
human αVβ5, sequence (P18084 24-719 limits assumed): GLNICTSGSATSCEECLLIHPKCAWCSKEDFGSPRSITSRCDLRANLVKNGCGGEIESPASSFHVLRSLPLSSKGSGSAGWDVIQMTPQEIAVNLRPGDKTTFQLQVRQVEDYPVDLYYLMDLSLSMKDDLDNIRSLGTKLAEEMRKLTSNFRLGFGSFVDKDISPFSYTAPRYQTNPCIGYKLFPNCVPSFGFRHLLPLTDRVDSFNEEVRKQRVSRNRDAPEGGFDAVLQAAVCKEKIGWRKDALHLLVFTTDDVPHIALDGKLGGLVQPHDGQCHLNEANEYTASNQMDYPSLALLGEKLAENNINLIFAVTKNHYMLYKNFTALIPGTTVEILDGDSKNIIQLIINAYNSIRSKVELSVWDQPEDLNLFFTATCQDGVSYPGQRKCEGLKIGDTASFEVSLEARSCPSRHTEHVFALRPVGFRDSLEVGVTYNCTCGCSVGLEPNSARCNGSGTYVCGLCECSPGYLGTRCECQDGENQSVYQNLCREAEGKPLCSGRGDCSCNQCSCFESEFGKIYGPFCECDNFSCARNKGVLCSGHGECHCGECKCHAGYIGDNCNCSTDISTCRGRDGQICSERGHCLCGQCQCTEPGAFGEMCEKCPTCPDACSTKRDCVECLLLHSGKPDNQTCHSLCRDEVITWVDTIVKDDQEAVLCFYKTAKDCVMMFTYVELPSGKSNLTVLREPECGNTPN
T1 sequence (P06756 31-992 limits assumed): as the sequence (P06756 31-992 limits assumed) above
T1 sequence (P18564 22-707 limits assumed): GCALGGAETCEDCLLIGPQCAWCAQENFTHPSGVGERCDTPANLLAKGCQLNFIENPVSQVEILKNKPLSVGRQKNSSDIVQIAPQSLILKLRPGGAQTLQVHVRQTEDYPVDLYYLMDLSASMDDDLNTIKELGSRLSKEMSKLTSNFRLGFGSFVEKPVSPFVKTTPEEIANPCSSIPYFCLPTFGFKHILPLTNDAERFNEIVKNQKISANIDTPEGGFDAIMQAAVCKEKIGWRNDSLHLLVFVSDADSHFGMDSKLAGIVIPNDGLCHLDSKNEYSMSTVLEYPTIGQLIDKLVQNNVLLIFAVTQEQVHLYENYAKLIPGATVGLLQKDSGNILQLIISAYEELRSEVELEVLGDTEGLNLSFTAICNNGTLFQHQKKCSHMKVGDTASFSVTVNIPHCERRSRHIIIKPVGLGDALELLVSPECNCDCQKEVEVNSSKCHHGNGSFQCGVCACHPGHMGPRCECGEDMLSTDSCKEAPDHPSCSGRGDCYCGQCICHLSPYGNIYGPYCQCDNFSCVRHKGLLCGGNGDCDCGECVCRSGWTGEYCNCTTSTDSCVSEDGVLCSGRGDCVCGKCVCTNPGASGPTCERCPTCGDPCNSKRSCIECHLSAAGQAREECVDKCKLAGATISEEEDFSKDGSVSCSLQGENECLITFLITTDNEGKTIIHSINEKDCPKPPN
human αVβ3, sequence (P06756 31-992 limits assumed): as the sequence (P06756 31-992 limits assumed) above
human αVβ3, sequence (P05106 27-718 limits assumed): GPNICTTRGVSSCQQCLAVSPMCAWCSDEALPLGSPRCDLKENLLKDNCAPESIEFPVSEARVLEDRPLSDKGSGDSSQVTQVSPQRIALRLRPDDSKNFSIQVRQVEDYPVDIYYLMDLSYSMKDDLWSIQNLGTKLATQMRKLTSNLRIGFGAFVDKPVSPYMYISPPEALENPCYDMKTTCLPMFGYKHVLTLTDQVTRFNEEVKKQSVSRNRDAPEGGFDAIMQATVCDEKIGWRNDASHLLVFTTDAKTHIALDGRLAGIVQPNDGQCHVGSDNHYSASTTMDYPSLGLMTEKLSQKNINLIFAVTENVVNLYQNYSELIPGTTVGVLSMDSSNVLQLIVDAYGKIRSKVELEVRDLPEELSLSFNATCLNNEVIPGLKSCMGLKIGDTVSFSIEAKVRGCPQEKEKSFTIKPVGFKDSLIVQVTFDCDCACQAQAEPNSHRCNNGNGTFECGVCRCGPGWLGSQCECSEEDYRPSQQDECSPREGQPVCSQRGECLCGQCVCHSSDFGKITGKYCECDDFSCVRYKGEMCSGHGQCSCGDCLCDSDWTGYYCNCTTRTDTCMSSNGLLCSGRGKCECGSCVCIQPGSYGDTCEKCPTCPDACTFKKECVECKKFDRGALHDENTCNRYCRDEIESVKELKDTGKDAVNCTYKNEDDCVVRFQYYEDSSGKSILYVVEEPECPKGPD
human αVβ8, sequence (P06756 31-992 limits assumed): as the sequence (P06756 31-992 limits assumed) above
human αVβ8, sequence (P26012 43-684 limits assumed): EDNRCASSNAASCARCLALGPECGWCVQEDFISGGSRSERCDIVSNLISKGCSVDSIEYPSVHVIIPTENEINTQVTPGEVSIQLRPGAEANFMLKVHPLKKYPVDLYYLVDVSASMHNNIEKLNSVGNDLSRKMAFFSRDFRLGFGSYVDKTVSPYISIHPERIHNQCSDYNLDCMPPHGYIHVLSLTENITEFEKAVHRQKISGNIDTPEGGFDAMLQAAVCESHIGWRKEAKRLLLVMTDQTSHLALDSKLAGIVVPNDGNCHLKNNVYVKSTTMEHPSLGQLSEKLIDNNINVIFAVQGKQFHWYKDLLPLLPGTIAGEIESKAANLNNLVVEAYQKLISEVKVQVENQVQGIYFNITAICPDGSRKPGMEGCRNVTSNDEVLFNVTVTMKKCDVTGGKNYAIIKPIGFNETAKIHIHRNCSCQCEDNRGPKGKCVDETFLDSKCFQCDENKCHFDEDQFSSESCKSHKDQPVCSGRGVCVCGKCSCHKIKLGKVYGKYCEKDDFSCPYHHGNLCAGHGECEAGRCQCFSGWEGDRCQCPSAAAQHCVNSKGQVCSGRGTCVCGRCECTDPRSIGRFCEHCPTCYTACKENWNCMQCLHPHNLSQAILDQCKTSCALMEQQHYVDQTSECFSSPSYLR

In the case of `COc1ccc([C@H](CC(=O)O)NC(=O)N2CC(CCc3ccc4c(n3)NCCC4)C2)cn1` [Example 6, (S)-3-(6-Methoxypyridin-3-yl)-3-(3-(2-(5,6,7,8-tetrahydro-1,8-naphthyridin-2-yl)ethyl)azetidine-1-carboxamido)propanoic acid], the IC50 at human αVβ5 is 7.7 nM; on human αVβ8, 430 nM; on human αVβ6, 2.8 nM; at human αVβ3 it was 6.3 nM; at human αVβ1, 510 nM.

Consider `COc1ccc([C@H](CC(=O)O)N2CC(CCCCc3ccc4c(n3)NCCC4)C2=O)cn1` (stereo partly drawn) [Example 9, (3S)-3-(6-Methoxypyridin-3-yl)-3-(2-oxo-3-(4-(5,6,7,8-tetrahydro-1,8-naphthyridin-2-yl)butyl)azetidin-1-yl)propanoic acid], for which the IC50 at human αVβ5 was found to be 1.2 nM; at human αVβ8, 630 nM; on human αVβ6, 1.9 nM; on human αVβ3, 1.8 nM; at human αVβ1, 400 nM.

For the compound `Cc1cc(C)c(S(=O)(=O)N[C@@H](CNC(=O)C2(F)CN(CCc3ccc4c(n3)NCCC4)C2)C(=O)O)c(C)c1` [Example 13, (S)-3-(3-Fluoro-1-(2-(5,6,7,8-tetrahydro-1,8-naphthyridin-2-yl)ethyl)azetidine-3-carboxamido)-2-(2,4,6-trimethylphenylsulfonamido)propanoic acid], the IC50 on human αVβ5 was found to be 2 nM; on human αVβ8, 30 nM; on human αVβ6 it was 0.6 nM; at human αVβ3 it was 4.1 nM; on human αVβ1, 84 nM.

Consider `Cc1ncc([C@H](CC(=O)O)N2CC(CCCCc3ccc4c(n3)NCCC4)C2)cn1` [Example 26, (S)-3-(2-Methylpyrimidin-5-yl)-3-(3-(4-(5,6,7,8-tetrahydro-1,8-naphthyridin-2-yl)butyl)azetidin-1-yl)propanoic acid], for which the IC50 at human αVβ5 worked out at 2 nM; at human αVβ6, 1.11 nM; at human αVβ3, 1.76 nM; at human αVβ1, 8630 nM.

`COc1ccc([C@H](CC(=O)O)N2CC(CCCCc3ccc4c(n3)NCCC4)C2)cc1F` [Example 27, (S)-3-(3-Fluoro-4-methoxyphenyl)-3-(3-(4-(5,6,7,8-tetrahydro-1,8-naphthyridin-2-yl)butyl)azetidin-1-yl)propanoic acid]: the results for the IC50 at human αVβ8 and on human αVβ6 were 11 nM and 0.58 nM, respectively.

For `Cc1cc(C)c(S(=O)(=O)N[C@@H](CNC(=O)C2CN(CCc3ccc4c(n3)NCCC4)C2)C(=O)O)c(C)c1` [Example 36], the concentration for half-maximal inhibition (IC50) on human αVβ5 was determined as 2 nM; at human αVβ8, 9.4 nM; at human αVβ6, 0.76 nM; on human αVβ3, 3.8 nM.

`O=C(N[C@@H](CNC(=O)C1(F)CN(CCc2ccc3c(n2)NCCC3)C1)C(=O)O)OCc1ccccc1` [Example 45]: the concentration for half-maximal inhibition (IC50) is 0.3 nM on human αVβ5; 89 nM at human αVβ8; 0.5 nM on human αVβ6; 3.07 nM on human αVβ3; 28 nM on human αVβ1.

Turning to `Cc1cc(C)c(S(=O)(=O)N[C@@H](CNC(=O)[C@H]2C[C@@H](CCc3ccc4c(n3)NCCC4)C2)C(=O)O)c(C)c1` [Example 51], the IC50 is 0.44 nM at human αVβ5, 15 nM on human αVβ8, 0.33 nM at human αVβ6 and 2.1 nM on human αVβ3.

On to `Cc1cc(C)c(S(=O)(=O)N[C@@H](CNC(=O)[C@H]2C[C@H](CCc3ccc4c(n3)NCCC4)C2)C(=O)O)c(C)c1` [Example 52], for which the IC50 at human αVβ5 amounted to 0.2 nM; on human αVβ8, 15 nM; on human αVβ6, 0.37 nM; on human αVβ3, 2.08 nM; on human αVβ1 it was 3.1 nM.

As to `COc1ccc([C@H](CC(=O)O)NC(=O)[C@H]2C[C@H](CCc3ccc4c(n3)NCCC4)C2)cc1F` [Example 53], the IC50 on human αVβ5 was 1.8 nM; on human αVβ8 it was 130 nM; at human αVβ6 it was 0.52 nM; on human αVβ3 it was 2.4 nM; on human αVβ1, 38 nM.

As to `COc1ccc([C@H](CC(=O)O)NC(=O)C2CC(CCc3ccc4c(n3)NCCC4)C2)cn1` (some centres unmarked) [Example 56], the IC50 at human αVβ5 amounted to 0.58 nM; on human αVβ8, 55 nM; at human αVβ6, 0.57 nM; on human αVβ3 it was 2 nM; on human αVβ1 it was 67 nM.

In the case of `O=C(N[C@@H](CNC(=O)C1CC(CCc2ccc3c(n2)NCCC3)C1)C(=O)O)OCc1ccccc1` (some centres unmarked) [Example 58], the IC50 at human αVβ5 turned out to be 0.15 nM; on human αVβ8, 62 nM; at human αVβ6, 0.44 nM; on human αVβ3, 2.4 nM; at human αVβ1 it was 7.6 nM.

Consider `COc1ccc([C@H](CC(=O)O)NC(=O)[C@H]2C[C@H](CCc3ccc4c(n3)NCCC4)C2)cn1` [Example 59], for which the IC50 at human αVβ5 amounted to 0.47 nM; on human αVβ8 it was 270 nM; on human αVβ6, 0.64 nM; at human αVβ3, 2.7 nM; on human αVβ1, 87.5 nM.

In the case of `COc1ccc([C@H](CC(=O)O)NC(=O)N2CC(CCc3ccc4c(n3)NCCC4)C2)cc1F` [Example 63], the IC50 on human αVβ5 amounted to 9.4 nM; at human αVβ8, 410 nM; on human αVβ6, 2.22 nM; at human αVβ3, 2.8 nM; at human αVβ1 it was 184 nM.

Consider `COc1ncc([C@H](CC(=O)O)N2CC(CCCCc3ccc4c(n3)NCCC4)C2=O)cn1` (some centres unmarked) [Example 69], for which the IC50 was 0.32 nM on human αVβ5; 2000 nM on human αVβ8; 3.27 nM at human αVβ6; 1.79 nM on human αVβ3; 1230 nM on human αVβ1.

With `O=C(N[C@@H](CNC(=O)[C@H]1C[C@@H](CCc2ccc3c(n2)NCCC3)C1)C(=O)O)OCc1ccccc1` [Example 77], the IC50 at human αVβ5 amounted to 0.01 nM; at human αVβ8 it was 82 nM; on human αVβ6 it was 0.54 nM; on human αVβ3, 2 nM; on human αVβ1 it was 48 nM.

With `O=C(N[C@@H](CNC(=O)[C@H]1C[C@H](CCc2ccc3c(n2)NCCC3)C1)C(=O)O)OCc1ccccc1` [Example 78], the IC50 at human αVβ5 was determined as 0.42 nM; at human αVβ8 it was 38 nM; on human αVβ6, 0.97 nM; on human αVβ3 it was 4.2 nM; at human αVβ1 it was 37 nM.

For the compound `O=C(O)C[C@H](NC(=O)C1(F)CN(CCc2ccc3c(n2)NCCC3)C1)c1cnc2ccccc2c1` [Example 80], the IC50 on human αVβ5 was 2.1 nM; on human αVβ8 it was 49 nM; on human αVβ6, 0.62 nM; on human αVβ3 it was 2.3 nM; on human αVβ1 it was 900 nM.

For the compound `COc1ncc([C@H](CC(=O)O)NC(=O)[C@H]2C[C@H](CCc3ccc4c(n3)NCCC4)C2)cn1` [Example 82], the IC50 at human αVβ5 was found to be 15 nM; at human αVβ8, 470 nM; on human αVβ6, 0.78 nM; at human αVβ3, 4.2 nM; on human αVβ1 it was 200 nM.

As for `O=C(O)C[C@H](NC(=O)[C@H]1C[C@@H](CCc2ccc3c(n2)NCCC3)C1)c1cnc2ccccc2c1` [Example 85], the IC50 at human αVβ8 stood at 140 nM; at human αVβ6, 0.68 nM; on human αVβ3 it was 2.1 nM; on human αVβ1, 330 nM.

Take `Cc1ncc([C@H](CC(=O)O)NC(=O)[C@H]2C[C@H](CCc3ccc4c(n3)NCCC4)C2)cn1` [Example 86]: the IC50 is 790 nM on human αVβ8, 1.5 nM at human αVβ6 and 2.7 nM on human αVβ3.

In the case of `O=C(O)C[C@H](NC(=O)[C@H]1C[C@@H](CCc2ccc3c(n2)NCCC3)C1)c1ccc2c(c1)OCC2` [Example 89], the IC50 on human αVβ8 is 250 nM; at human αVβ6 it was 2.2 nM; at human αVβ3, 1.5 nM.

For `O=C(O)C[C@H](NC(=O)[C@H]1C[C@H](CCc2ccc3c(n2)NCCC3)C1)c1cncnc1` [Example 90], the IC50 at human αVβ8 worked out at 1100 nM; on human αVβ6, 1.7 nM; on human αVβ3, 120 nM; at human αVβ1, 520 nM.

As to `O=C(O)C[C@@H](c1ccc2c(c1)OCC2)N1CC(CCCCc2ccc3c(n2)NCCC3)C1=O` (some centres unmarked) [Example 104], the IC50 at human αVβ8 was found to be 110 nM; at human αVβ6 it was 2.23 nM; on human αVβ3 it was 2.4 nM; at human αVβ1, 329 nM.

Take `Cc1ncc([C@@H](CC(=O)O)N2CC(OCCCc3ccc4c(n3)NCCC4)C2)cn1` [example 132, (R)-3-(2-methylpyrimidin-5-yl)-3-(3-(3-(5,6,7,8-tetrahydro-1,8-naphthyridin-2-yl)propoxy)azetidin-1-yl)propanoic acid]: the IC50 on human αVβ6 was 25 nM. In other words, the double-digit nanomolar range.

“(S)-Ethyl 3-(6-methoxypyridin-3-yl)-3-(1-methyl-3-(2-(5,6,7,8-tetrahydro-1,8-naphthyridin-2-yl)ethyl)cyclobutanecarboxamido)propanoate [Example 15]” returned an IC50 on human αVβ6 of 5.2 nM. This IC50 is about 4.8-fold lower than that of the compound before.

For the compound “(S)-Ethyl 3-(6-methoxypyridin-3-yl)-3-(1-methyl-3-(2-(5,6,7,8-tetrahydro-1,8-naphthyridin-2-yl)ethyl)cyclobutanecarboxamido)propanoate [Example 16]”, the half-inhibitory concentration (IC50) at human αVβ6 stood at 2.6 nM.
